Measured values as given in the NIST ThermoML archive (doi:10.1021/acs.jced.8b01042).
± gives the expanded uncertainty stated by the source.

Key:
[1] = 298.15 K; 100 kPa; Liquid; Capillary tube (Ostwald / Ubbelohde) method
[2] = xn = mol fraction of the nth substance listed; conditions: 298.15 K; 101.3 kPa; Liquid; Capillary tube (Ostwald / Ubbelohde) method; x1 = 0.66

SMILES | viscosity [1] | viscosity [2]
OCC(O)CO [glycerol] | 1200 ± 97 mPa·s | 
CC1(C)OCC(CO)O1 (stereo not drawn) [2,2-dimethyl-1,3-dioxolane-4-methanol] | 10.06 ± 0.42 mPa·s | 
OC1COCOC1 [1,3-dioxan-5-ol] + OCC1COCO1 |  | 20.05 ± 0.84 mPa·s
